Results on 26 compounds are retold here after article PMC12124721, “Impact of Fluorine Pattern on Lipophilicity and Acid–Base Properties of 2‑(Thiofluoroalkyl)pyridines: Insights from Experiments and Statistical Modeling” (Journal of Medicinal Chemistry, 2025).

Several values for one entry are separate records, joined by “and”; a condition that tells them apart may be missing. Equal values may be shown once. Entries after “also recorded” stand apart in the source; their conditions may differ.

Series [1] is described as follows: pKa of conjugate acid by 1H NMR titration (nonfluorinated analogues). It is filed as physicochemical. The conditions noted are these: aqueous solutions of different pH, conjugate acid (pyridinium), water. As for the experimental part: (§1) The measurements were conducted on the corresponding conjugate acids of the thiofluoroalkylpyridines using an ^19F NMR method developed by Leito and coworkers. For nonfluorinated analogues, pK a was determined by an analogous method using ^1H NMR. […] Likewise, internal difluorination of the thioethyl group led to a more acidic pyridinium (9, pK a 2.05) compared to terminal difluorination (6, pK a 2.43). […] Computationally, it is straightforward to determine pK a values for molecular organic systems, obtaining quantitative predictions via fitting to experimental data (Table S12).
A protocol developed by the group of Leito was followed for the determination of the […] of fluorinated 2-substituted pyridines using ^19F NMR. […] Next, the tube was caped and shaken vigorously, and the pH of the resulting solution was measured inside the tube with a pH meter with an NMR-tube probe. […] Next, a standard ^19F NMR experiment was recorded to determine the chemical shifts of the external standard and the sample of interest. […] The battery of NMR samples at different pH values was measured. • Data processing: using MestReNova NMR software, the chemical shifts of the pyridines were determined. […] Next, the selected signal for each pyridine was plotted against the pH of the measured solution. […]

A short description of series [2]: logD7.4 by shake-flask HPLC-UV for nonfluorinated pyridines. It is filed as physicochemical. Conditions: for logD: 1-octanol/phosphate buffer, pH 7.4, 1-octanol/phosphate buffer pH 7.4, HPLC-UV; for logD (single sample A, B, C): Table S2, individual HPLC-UV partitionings at different buffer:octanol volume ratios, pH 7.4. As for the experimental part: A protocol described by Ràfols and coworkers was followed for the determination of the log D ^7.4 values of the nonfluorinated pyridines. The 4-step process was replicated three times for each compound: • Stocksolution preparation: in a 12 mL vial, 15 mg of the pyridine was charged. Then, 6 mL of phosphate buffer at pH 7.4 was added, and the mixture was vigorously shaken for 2 h. An aliquot of this stock solution was measured by HPLC-UV. • Partitioning: three partitioning experiments were carried out for each compound. To prepare an experiment, in a vial containing a magnetic stir bar, a known amount of the stock solution was introduced, followed by another known amount of 1-octanol. Next, the biphasic mixture was stirred for 2 h and left to stand overnight to allow phase partition. For the selection of the different volume ratios, it was followed reported recommendations, although 1:1, 10:1, and 1:10 octanol:stock solutions were usually employed. • Sample preparation and measurement: to prepare the sample, 0.1 mL of the aqueous phase was taken and introduced in a 2 mL vial, following the precautions described in the previous section. The samples were then analyzed with the same HPLC-UV method as that of the stock solution. The log D ^7.4 value was obtaining by comparing the initial amount of pyridine in the aqueous phase before and after partitioning, taking into consideration the volume rates.

The nature of series [3]: logD7.4 by 19F NMR shake-flask partitioning (Linclau method). The format is physicochemical. The conditions noted are these: for logD: 1-octanol/phosphate buffer; for logD (single replicate): Table S1, individual 19F NMR partitioning experiments. As to the method:
LogD ^7.4 (pH 7.4) measurements of the 2-(thiofluoroalkyl)-pyridines were conducted according to a method developed by Linclau and coworkers, a variation on the traditional “shake-flask” partitioning between octanol and water. Together with a fluorinated internal standard of known lipophilicity, simple ^19F NMR experiments allowed for the calculation of the logD ^7.4 value of the compound of interest through integration of NMR signals in each phase. During our experiments, no difference between logD ^7.4 and logP values was observed, probably due to the low basicity of the pyridines. Nonetheless, for the sake of consistency, logD ^7.4 was deemed the appropriate parameter for evaluating lipophilicity.
A protocol developed by the group of Linclau was followed for the determination of the log D ^7.4 values of the 2-substituted pyridines. The 4-step process was replicated three times for each compound: • Partitioning: to a 10 mL pear-shaped flask were added 2 mL of 1-octanol, 2-substituted pyridine (1–10 mg), trifluoroethanol (5 μL), and 2 mL of phosphate buffer (pH 7.4). The resulting mixture was stirred at 25 °C for 2 h by controlling the temperature by an immersion cooler, and then, it was left to stand at 25 °C overnight to enable complete phase separation. • Sample preparation: using a 1 mL disposable syringe, an aliquot of 0.6 mL was carefully taken from the aqueous or the 1-octanol phase. Next, the needle was carefully wiped with a dry tissue, and the aliquot was placed into an NMR tube, followed by addition of 0.1 mL of acetone-d 6. The NMR tubes were sealed using a rubber septum stopper and shaken to obtain a homogeneous solution for NMR measurement. When taking an aliquot of the lower water phase, to avoid the contamination of the syringe with the upper octanol phase, 0.05 mL of air was taken into the syringe before putting the needle into the solution, and while immersing it through the upper octanol layer, the air was gently pushed out. Upon reaching the water phase, all air bubbles are pushed out of the syringe, the aliquot is taken, and the needle is quickly removed from the solution. Then, a small amount of the water phase was discarded to ensure all traces of octanol are out of the needle, leaving a 0.6 mL sample in the syringe. • NMR measurement: fluorine (^19F{1H} NMR) nuclear magnetic resonance spectra were recorded on a Varian Mercury spectrometer or Bruker Avance Ultrashield (376.5 MHz for ^19F NMR). Parameters used in the determination of lipophilicities were obtained from the experiments carried out by Linclau and coworkers. First, the sealed tube was inserted to the NMR spectrometer, and following automatic locking and gradient shimming, a simple ^19F spectrum was recorded on the nonspinning sample to assess the required spectral width (SW) and frequency offset point (O1P). The O1P is centered between the two diagnostic F signals, and the spectral width (SW) is left at 200 ppm (it can be reduced if a better S/N ratio is required). Then, the 90° pulse was measured with the automated pulsecal routine obtaining a power (PW) of 16 μs. The measured 90° pulse, SW, and O1P were transferred into the inversion–recovery experiment. For practical purposes, it is recommended to use a D1 of 30 s for the octanol sample and of 60 s for the water sample as pulse delay, given the D1 value should be greater than 5*T1 for quantitative integration. The number of transients (NS) is selected for each sample to afford a suitable signal-to-noise ratio (SNR should be >250). • Data processing:data were processed using Mestre Nova NMR software. The obtained FID file was reprocessed using the following conditions: WFunction (LB = 2, exponential), zero filling (increasing points from 65,536 to 262,144) and then Fourier transform, followed by phasing with mouse and auto baseline correction. The integration ratio was obtained by manual integration.

Series [4] can be described thus: pKa of conjugate acid by 19F NMR titration (Leito method). It is filed as physicochemical. Conditions: aqueous solutions of different pH, conjugate acid (pyridinium), water. As to the method:
as §1
A protocol developed by the group of Leito was followed for the determination of the […] of fluorinated 2-substituted pyridines using ^19F NMR. […] Next, the tube was caped and shaken vigorously, and the pH of the resulting solution was measured inside the tube with a pH meter with an NMR-tube probe. This procedure was repeated for all of the aqueous solutions to have a battery of NMR tubes at different pH values. If needed, additional solutions were prepared to ensure a continuum of pH values. • Sample measurement: for ^19F NMR measurements, a 3 mm NMR tube containing a solution of 8 mg of KF in 1 mL of D2O was inserted into the NMR tube of interest to serve as an external standard. Next, a standard ^19F NMR experiment was recorded to determine the chemical shifts of the external standard and the sample of interest. For the ^1H method, the same protocol was applied by changing the external standard for 5 μL of trifluoroethanol instead of KF. The battery of NMR samples at different pH values was measured. • Data processing: using MestReNova NMR software, the chemical shifts of the pyridines were determined. For ^19F NMR experiments, the KF reference was set to −125.00 ppm, and the closest ^19F signal of the pyridine was chosen for the chemical shift determination. For ^1H NMR experiments, the trifluoroethanol reference (CF3CH2OH) was set to 3.14 ppm, and the methyl signals of the nonfluorinated pyridines were chosen for the chemical shift determination. Next, the selected signal for each pyridine was plotted against the pH of the measured solution. Using Prism GraphPad software, a sigmoidal curve was adjusted, and the second derivate was performed to obtain the pK a value of the given pyridine.

Series [5] can be described thus: stability in aqueous media during logD measurement. It is filed as physicochemical. Conditions: during logD7.4 measurement period. The source says: The computational model can also be employed to predict the lipophilicity of experimentally undetermined compounds such as pyridines 21 and 22 (Figure ).
Details of series [6]: method as in earlier work. The conditions noted are these: thiofluoroalkyl benzenes; logP (=logD7.4) measured indirectly by HPLC retention times; ref 36 (SI), O'Hagan group; cited from earlier work.
The mark [7] stands for this setting: nonfluorinated pyridines, mean of three.
Where [8] appears, read: pH 7.4, 1-octanol/phosphate buffer pH 7.4, 25 °C, trifluoroethanol reference, 19F NMR, mean of three, read-out: logD7.4.
[9] abbreviates: pH 7.4, Table S1, individual 19F NMR partitioning experiments, pH 7.4, read-out: logD (single replicate).

As to `CSc1ccccn1` [Compound 1, 2-(methylthio)pyridine], the pKa (usually the pH at which an ionisable group is half protonated) in series [1] amounted to 3.69. This compound gave a logD in series [2] (setting [7]) of 1.69.
Consider `FC(F)Sc1ccccn1` [Compound 2, 2-((Difluoromethyl)thio)pyridine], for which the logD in series [3] (setting [8]) is 1.95. In series [4], this compound registered a pKa of 1.7.
Turning to `FC(F)(F)Sc1ccccn1` [Compound 3, 2-((Trifluoromethyl)thio)pyridine], the logD in series [3] (setting [8]) is 2.13. In addition, in series [4], the pKa was 0.97.
Regarding `CC(F)(F)Sc1ccccn1` [Compound 4, 2-((1,1-Difluoroethyl)thio)pyridine], the logD7.4 in series [3] (1-octanol/phosphate buffer pH 7.4, 25 °C, trifluoroethanol reference, 19F NMR, mean of three) is on record as 1.84. Besides, in series [3] (setting [8]), the logD amounted to 1.82. The compound also had a pKa in series [4] of 2.05.
Take `FC(F)CSc1ccccn1` [Compound 6, 2-((2,2-Difluoroethyl)thio)pyridine]: in series [3] (setting [8]), the logD came to 2.26. Also, the pKa in series [4] came out at 2.43.
For `FC(F)C(F)(F)Sc1ccccn1` [Compound 7, 2-((1,1,2,2-Tetrafluoroethyl)thio)pyridine] the same measures were 2.27 and 1.33.
For `FC(F)(F)CSc1ccccn1` [Compound 8, 2-((2,2,2-Trifluoroethyl)thio)pyridine] the same measures were 2.71 and 1.49.
For `FC(F)(F)C(F)(F)Sc1ccccn1` [Compound 9, 2-((Perfluoroethyl)thio)pyridine] the same measures were 2.76 and 0.94.
For the compound `CS(=O)(=O)c1ccccn1` [Compound 10, 2-(Methylsulfonyl)pyridine], the logD in series [2] (setting [7]) was -0.43. The “logD (single sample A, B, C)” value in series [2] is -0,407 and -0,414 and -0,469.
With `O=S(=O)(CF)c1ccccn1` [Compound 11, 2-((Fluoromethyl)sulfonyl)pyridine], the figures for the logD in series [3] (setting [8]) and in series [3] (setting [9]) were 0.1 and 0.093, respectively. Further, in series [3] (pH 7.4), the “logD (single replicate)” value was 0,112 and 0,084.
Regarding `O=S(=O)(c1ccccn1)C(F)F` [Compound 12, 2-((Difluoromethyl)sulfonyl)pyridine], the figures for the logD in series [3] (setting [8]) and in series [3] (setting [9]) were 0.55 and 0.576, respectively. In addition, in series [3] (pH 7.4), the “logD (single replicate)” value was 0,541 and 0,538.
As to `O=S(=O)(c1ccccn1)C(F)(F)F` [Compound 13, 2-((Trifluoromethyl)sulfonyl)pyridine], the logD in series [3] (setting [8]) was determined as 1.43.
Take `O=S(=O)(CCF)c1ccccn1` [Compound 14, 2-((2-Fluoroethyl)sulfonyl)pyridine]: the logD in series [3] (setting [8]) was -0.21. Further, the “logD (single replicate)” value in series [3] (pH 7.4) was -0,199 and -0,158 and -0,274.
For the compound `CCS(=O)(=O)c1ccccn1` [Compound 15, 2-(Ethylsulfonyl)pyridine], the logD7.4 in series [2] (1-octanol/phosphate buffer pH 7.4, HPLC-UV, nonfluorinated pyridines, mean of three) is given as -0,07. Moreover, the logD in series [2] (setting [7]) was -0.07. For the same compound, in series [2], the “logD (single sample A, B, C)” value was -0,032 and -0,070 and -0,118.
With `O=S(=O)(CC(F)F)c1ccccn1` [Compound 16, 2-((2,2-Difluoroethyl)sulfonyl)pyridine], the logD in series [3] (setting [8]) was 0.31; in series [3] (setting [9]), 0.304. Further, the “logD (single replicate)” value in series [3] (pH 7.4) was 0,315 and 0,309.
`CC(F)(F)S(=O)(=O)c1ccccn1` [Compound 17, 2-((1,1-Difluoroethyl)sulfonyl)pyridine]: the logD in series [3] (setting [8]) turned out to be 0.79; in series [3] (setting [9]) it was 0.786. Moreover, the “logD (single replicate)” value in series [3] (pH 7.4) was 0,784 and 0,794.
Turning to `O=S(=O)(CC(F)(F)F)c1ccccn1` [Compound 18, 2-((2,2,2-Trifluoroethyl)sulfonyl)pyridine], the logD is 0.81 in series [3] (setting [8]) and 0.813 in series [3] (setting [9]). Moreover, the “logD (single replicate)” value in series [3] (pH 7.4) was 0,802 and 0,803.
As for `O=S(=O)(c1ccccn1)C(F)(F)C(F)F` [Compound 19, 2-((1,1,2,2-Tetrafluoroethyl)sulfonyl)pyridine], the logD in series [3] (setting [8]) stood at 1.43.
Same read-out and setting: under `O=S(=O)(c1ccccn1)C(F)(F)C(F)(F)F` [Compound 20, 2-((Perfluoroethyl)sulfonyl)pyridine] stands 2.21.
`FCSc1ccccn1` [Compound 21, 2-((Fluoromethyl)thio)pyridine]: in series [5], the “stability in aqueous media” value was “decomposes in water; also recorded: decomposed in aqueous media; also recorded: water-unstable”. In addition, the pKa in series [4] stood at 2.43.
For `FCCSc1ccccn1` [Compound 22] the same measures were “decomposes in water; also recorded: decomposed in aqueous media; also recorded: water-unstable” and 3.08.
On to `CC(F)(F)Sc1ccccc1` [SCF2CH3 Ph], for which the “logD7.4 (Ph)” value in series [6] is reported as 3.38.
Regarding `FC(F)(F)Sc1ccccc1` [SCF3 Ph], the “logD7.4 (Ph)” value in series [6] is listed as 3.70.
Consider `FC(F)(F)CSc1ccccc1` [SCH2CF3 Ph], for which the “logD7.4 (Ph)” value in series [6] is 3.30.
As for `CCSc1ccccc1` [SCH2CH3 Ph], the “logD7.4 (Ph)” value in series [6] was 3.42.
In the case of `CSc1ccccc1` [SCH3 Ph], in series [6], the “logD7.4 (Ph)” value is listed as 2.87.
